{"source": "patent US20040214803A1", "about": "“Use of vitamin d3 analogue for the treatment of autoimmune diabetes” (priority 2001, published 2004)", "format_in_all_cases": "in vivo, mouse", "key": {"[1]": {"system": "pancreas-infiltrating cells", "experiment": "Cytofluorimetric analysis of pancreas-infiltrating cells", "settings": "among 8 week-old, vehicle-treated and treated mice at 30 weeks", "experimental": "After removal of all visible pancreatic lymph nodes, pancreata were individually digested in 3 ml HBSS containing 1 mg/ml collagenase IV (Sigma), by shaking (200 rpm) at 37° C. for 15 min. Single cell suspensions were collected after diluting the enzyme with ice-cold HBSS containing 5% FCS (FETAL CALF SERUM) and removal of the aggregates by settling for 2 min on ice. Aggregates were further digested with collagenase IV at 0.5 mg/ml for 10 min, and at 0.25 mg/ml for 6 min. Single cell suspensions were washed three times, and passed over a MASC Pre-separation filter (Miltenyi Biotec) to remove cell aggragetes and clumps. […]\nSingle-cell suspensions of pancreas-infiltrating, spleen or lymph node cells were incubated with anti-CD4 mAb-coated Microbeads (Miltenyi Biotec) and applied onto Mini-MACS columns (Miltenyi Biotec). […] Cells were analyzed with a FACScan flow cytometer equipped with CellQuest software (Becton Dickinson, Mountain View, Calif.).\nB. Consecutive sections of the same islets were stained with anti-CD4, anti-CD8, anti-B220, anti-CD11b (Mac-1), and anti-CD11c (N418) mAbs. […] Pancreas-infiltrating cells isolated from untreated 8 week-old NOD mice, vehicle-treated and Compound A treated NOD mice at 30 weeks of age were stained with mAbs specific for the indicated surface molecules and analyzed by flow cytometry. […]"}, "[2]": {"system": "CD4+ T cells", "experiment": "Flow cytometric analysis of surface molecules on CD4+ cells from treated NOD mice", "experimental": "Single-cell suspensions of pancreas-infiltrating, spleen or lymph node cells were incubated with anti-CD4 mAb-coated Microbeads (Miltenyi Biotec) and applied onto Mini-MACS columns (Miltenyi Biotec). Stainings were performed in the presence of 100 μg/ml mouse IgG using the following mAbs, all from PharMingen: CyChrome-labeled Streptavidin, FITC-labeled anti-CD4 (L3T4), PE-labeled anti-CD45RB (16A), PE-labeled anti-CD62L (MEL-14), PE-labeled anti-CD38 (rat IgG2a), FITC-labeled anti-CD69 (H1.2F3), and biotinylated anti-CD25 (7D4). Cells were analyzed with a FACScan flow cytometer equipped with CellQuest software (Becton Dickinson, Mountain View, Calif.).\nTherefore, we analyzed the frequency of CD4^+ CD25^+ cells in 1,25-dihydroxy-16,23Z-diene-26,27-hexafluoro-19-nor vitamin D3-treated NOD mice. No difference was found in the percentage of splenic CD4^+ cells expressing CD25, CD38, CD69, CD62L and CD45RB in 20 week-old Compound A or vehicle-treated and untreated 8 week-old NOD mice (FIG. 6A).\nFIG. 6. (page 6/9) Compound A treatment enhances the frequency of CD4^+ CD25^+ cells. Positively selected CD4^+ T cells were stained with mAbs specific for the indicated surface molecules and analyzed by flow cytometry. Acquisition was performed on CD4^+ cells. Bars represent the percent of spleen and lymph node CD4^+ T cells expressing the indicated surface molecules from untreated 8 week-old (□) or 20 week-old NOD mice treated 5×/week from 8 to 16 weeks of age with vehicle ( ? ) or with 0.03 μg/Kg Compound A (▪). Data are presented as mean ±SE of three separate experiments. The P values were calculated by Mann-Whitney U test (* indicates P<0.05 vs. 8 week-old NOD mice)."}, "[3]": {"system": "aortic allografts", "experiment": "Aortic allograft chronic rejection: intimal thickening / luminal reduction", "settings": "0.03 μg/kg p.o. five times per week day 0 to day 30; grafts analysed 60 days after transplantation; vehicle >60%", "experimental": "Mice: BALB/c and C57BL/6 (B6) male mice, weighing 22-24 g, were purchased from Charles River Laboratories (Calco, Italy), and kept under specific pathogen-free conditions. B6 (H-2^b) mice were used as donors and BALB/c (H-2^d) as recipients of aortic allografts.\nAorta transplantation: The entire procedure was performed according to Koulack et al. Development of a mouse aortic transplant model of chronic rejection Microsurgery 1995; 16: 110-3, with the modification described by Hong et al. Improved surgical technique for the establishment of a murine model of aortic transplantation. Microsurgery 1998; 18: 368-71. […]\nDetermination of luminal reduction: Luminal reduction was assessed in 5 μm-thick frozen transverse aortic sections stained with hematoxylin and eosin obtained 60 days post transplantation. To quantify morphological changes in the graft, we used a Leica DC camera (Leica IM 1000 image manager) to acquire the image, and the Leica Qwin software to calculate the luminal reduction percentage. […]\nStatistical analysis: Numerical data are expressed as mean ±SD. Data on percent luminal reduction were analysed by a non parametric Students's t-test.\nThe effect of Compound A in preventing chronic rejection was evaluated using the aortic graft model in the mouse. […] Aortic grafts were analyzed 60 days after transplantation."}}, "data": [{"smiles": "C[C@H](C/C=C\\C(O)(C(F)(F)F)C(F)(F)F)C1=CC[C@H]2/C(=C/C=C3C[C@@H](O)C[C@H](O)C3)CCC[C@]12C", "note": "[Compound A, 1,25-dihydroxy-16,23Z-diene-26,27-hexafluoro-19-nor vitamin D3]", "values": [{"measurement": "percentage of CD4+, CD8+, B220+, CD11b+ and CD11c+ pancreas-infiltrating cells", "setting": "[1]", "value": "no difference"}, {"measurement": "percentage of splenic CD4+ cells expressing CD25, CD38, CD69, CD62L and CD45RB", "setting": "[2]; 20 week-old mice, vs vehicle-treated and untreated 8 week-old", "value": "No difference"}, {"measurement": "percentage of CD45RBhigh", "setting": "[2]; pancreatic lymph node CD4+ cells, 8 week-old 75.9±0.5%, vehicle 74.2±1.6", "value": "65.1±0.3", "unit": "%"}, {"measurement": "percentage of CD4+ CD25+", "setting": "[2]; pancreatic lymph node cells, 8 week-old 11.6±0.1%, vehicle 13.0±0.1", "value": "20.1±0.1", "unit": "%"}, {"measurement": "percentage of CD4+ CD38+", "setting": "[2]; pancreatic lymph node cells, 8 week-old 11.8±0.1%, vehicle 10.6±1.0", "value": "25.2±0.2", "unit": "%"}, {"measurement": "percentage of CD45RBlow CD4+ cells", "setting": "[2]; pancreatic lymph node cells, 8 week-old 12.65±0.43%, vehicle 34.8±0.01", "value": "24.1±0.22", "unit": "%"}, {"measurement": "double positive CD25+ CD38+ CD4+ cells", "setting": "[2]; pancreatic lymph node, 8 week-old 8%, vehicle 7%", "value": 17, "unit": "%"}, {"measurement": "intimal thickening", "setting": "[3]", "value": "< 20", "unit": "%"}]}]}
